Test results reported in paper PMC6788984, “High-potency ligands for DREADD imaging and activation in rodents and monkeys” (Nature Communications, 2019).
Values joined by “and” are separate entries in the source; they are usually repeats but may differ in a detail not shown here. Identical values can stand only once.

Legend:
hM4Di = target: T1, hM4Di (Homo sapiens, UniProt P08173, A203G/Y113C); test: [11C]clozapine PET occupancy in monkey expressing hM4Di in the amygdala; format: in vivo, rhesus monkey (Macaca mulatta); set-up: expressed in transfected cells; host or cells: rhesus monkey (Macaca mulatta) right amygdala, lentivirus-transduced neurons
T1 sequence (P08173 1-479 Y113C/A203G): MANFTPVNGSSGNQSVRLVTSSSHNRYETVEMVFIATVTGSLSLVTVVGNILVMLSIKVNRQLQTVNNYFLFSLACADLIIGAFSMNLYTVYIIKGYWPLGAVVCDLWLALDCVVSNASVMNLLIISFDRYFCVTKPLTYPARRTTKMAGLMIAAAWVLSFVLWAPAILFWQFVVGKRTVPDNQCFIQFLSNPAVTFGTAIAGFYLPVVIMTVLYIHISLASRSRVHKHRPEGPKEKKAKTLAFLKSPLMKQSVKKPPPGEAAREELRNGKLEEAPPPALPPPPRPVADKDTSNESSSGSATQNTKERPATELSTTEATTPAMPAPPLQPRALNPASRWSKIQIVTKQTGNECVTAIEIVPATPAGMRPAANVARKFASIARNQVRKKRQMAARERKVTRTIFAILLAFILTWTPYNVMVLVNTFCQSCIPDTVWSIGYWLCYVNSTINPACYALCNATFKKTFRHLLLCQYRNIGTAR
Experimental: Lentivirus expressing an hM4Di-CFP fusion protein under an hSyn promoter[11] with a titer of >10^9 infectious particles was loaded into a 100 µL glass syringe (Hamilton Co., MA). The 31-gauge needle of the syringe was sheathed with a silica capillary (450 µm OD) to create a step 1 mm from the base of the aperture. The syringe was mounted in a Nanomite pump (Harvard Apparatus, Cambridge, MA). The needle was lowered through the incision in the dura mater to each of the pre-calculated target sites and 10 or 20 µL was infused at a rate of 1 µL min^−1. Each monkey received a total of between 10 and 12 injections (for a total injection volume of 120–240 µL). Post-infusion, the needle was left in situ for 10 min after each injection to allow pressure from the infusate to dissipate. The needle was then slowly removed. At the completion of the injection series the soft tissues were sutured together in anatomical layers.
All macaque studies were acquired dynamically on the Focus 220 PET scanner (Siemens Medical Solutions, Knoxville, TN). The Focus 220 is a dedicated pre-clinical scanner with a transaxial FOV of 19 cm and an axial FOV of 7.5 cm. Image resolution is <2 mm within the central 5 cm FOV.
After initial evaluation the monkey was sedated with ketamine (10 mg kg^−1) followed by ketoprofen (as an analgesic) and glycopyrrolate (for salvia reduction), all weight dependent IM injections. The monkey would then be placed in the supine position, intubated with a tracheal tube. Anesthesia was maintained by 1–3.5% isoflurane and oxygen, the monkey’s head was positioned and immobilized for optimal positioning of the brain and moved into the scanner. A 10-min transmission scan using a Co-57-point source for attenuation correction was performed. One iv was inserted, if possible, in the right arm and one in the right leg for injection of tracer and blocking agent. The monkey was always monitored while anesthetized. HR, BP, O2 saturation, RR, three lead ECG, rectal temperature was documented every 15 min.
Arterial blood sampling was acquired throughout the study using an indwelling femoral port. The first 2 min samples were collected every 15 s then at 3, 5, 10, 30, 60, 90, and 120 min post tracer injection. All scans were acquired for 120 min using list mode acquisition.
Scan data were histogrammed into 33 frames (6 × 30 s, 3 × 1 min, 2 × 2 min, and 22 × 5 min). Reconstruction was performed by Filtered Back Projection with scatter correction. After completion of the last study of the day, isoflurane was cut off. The monkey was gradually awakened, moved to the housing facility and fully recovered.

WT littermates = test: Locomotor activity in WT littermate rats; format: in vivo, rat
Experimental: Tyrosine hydroxylase (TH):Cre rats (n = 9; founder, K. Deisseroth lab) or WT littermates (n = 9) were bilaterally injected with AAV2 hSyn-DIO-hM3Dq-mCherry (1ul/hemisphere, Addgene), and allowed to recover for 2 + weeks. Following handling, they were habituated to a Med Associates locomotor testing box (43 × 43 × 30.5 cm) for 2 h on 2 days, then repeatedly tested after separate day doses of DREADD agonists and vehicle. […]. Vehicle was administered on 2 separate days, and average locomotion was used for comparison with DREADD agonists. Cohort 2 underwent the same procedures, but with a 4 h testing session, and the following IP injections: vehicle (x2), JHU37152 (0.01–0.3 mg kg^−1), JHU37160 (0.01–0.3 mg kg^−1). All drugs were dissolved in 5% DMSO in saline, and injected 1 ml kg^−1. Following all tests, rats were transcardially perfused, brains sectioned coronally at 40 µm, and VTA-specific expression confirmed using endogenous mCherry reporter expression, which co-localized nearly exclusively with TH immunoreactivity.

hM3Dq = hM3Dq (Homo sapiens, UniProt P20309, A239G/Y149C); test: DREADD-assisted metabolic mapping (DREAMM), [18F]FDG PET in D1-hM3Dq mice; format: in vivo, mouse; set-up: 026220; host or cells: mouse brain, dopamine D1 receptor-expressing neurons (transgene); details: 0.1 mg kg-1 IP
Experimental: Mice (D1-hM3Dq, D1-hM4Di or WT littermates, see above) were habituated to experimenter handling and fasted 16 h before the experiment. On the day of the experiment, mice received an IP injection of vehicle (1 ml kg^−1) and were placed back into their home cages. Ten minutes later, mice were injected (IP) with 11 MBq of 2-deoxy-2-[^18F]fluoro-D-glucose (FDG, Cardinal Health) and placed back into their home cages. After 30 min, mice were anesthetized with 1.5% isoflurane, placed on a custom-made bed of a nanoScan small animal PET/CT scanner (Mediso Medical Imaging Systems) and scanned for 20 min on a static acquisition protocol, followed by a CT scan. […] Voxel-based repeated measures with Student’s t test comparing baseline to drug were performed, and the resulting parametric images were filtered for statistically significant (p < 0.05) clusters larger than 100 contiguous voxels. All statistical parametric mapping analyses were performed using Matlab R2016 (Mathworks) and SPM12 (University College London).

Sequence of hM3Dq (P20309 whole entry Y149C/A239G): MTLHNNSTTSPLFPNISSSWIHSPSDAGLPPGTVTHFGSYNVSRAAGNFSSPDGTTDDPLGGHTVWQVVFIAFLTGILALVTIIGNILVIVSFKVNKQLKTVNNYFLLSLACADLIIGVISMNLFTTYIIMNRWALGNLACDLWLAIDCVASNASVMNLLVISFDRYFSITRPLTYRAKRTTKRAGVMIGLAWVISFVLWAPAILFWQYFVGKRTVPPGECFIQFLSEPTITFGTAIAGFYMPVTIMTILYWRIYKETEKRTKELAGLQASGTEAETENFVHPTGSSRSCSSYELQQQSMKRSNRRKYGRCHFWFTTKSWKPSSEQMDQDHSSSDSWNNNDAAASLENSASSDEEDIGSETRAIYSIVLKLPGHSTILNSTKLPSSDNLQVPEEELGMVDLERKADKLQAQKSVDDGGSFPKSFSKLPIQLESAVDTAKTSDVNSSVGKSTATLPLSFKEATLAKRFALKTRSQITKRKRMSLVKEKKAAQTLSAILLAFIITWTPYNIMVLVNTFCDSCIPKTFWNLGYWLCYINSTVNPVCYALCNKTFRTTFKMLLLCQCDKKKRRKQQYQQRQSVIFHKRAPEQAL

| SMILES | in vivo DREADD occupancy (hM4Di; 1 mg/kg IV) | hM4Di occupancy (hM4Di; 10 mg/kg) | Locomotor activity, individual animals (Figure 3 Panel F) (WT littermates; dose 0.01, listed as J60) | Locomotor activity, individual animals (Figure 3 Panel F) (WT littermates; dose 0.1, listed as J60) | [11C]clozapine displacement at hM4Di expressed in the amygdala (hM4Di; 0.1 mg kg-1 (lesser extent 0.01 mg kg-1)) | [11C]clozapine binding after drug, R_Amygdala (hM4Di; 0.1 mg kg-1, hM4Di-expressing region) | brain metabolism ([18F]FDG) (hM3Dq) |
| --- | --- | --- | --- | --- | --- | --- | --- |
| c1ccc2c(c1)N=C(N1CCNCC1)c1ccccc1N2 [C21] | no measurable occupancy | ~ 50% |  |  |  |  |  |
| CCN1CCN(C2=Nc3cc(Cl)ccc3Nc3c(F)cccc32)CC1 [JHU37160, 8-Chloro-11-(4-ethylpiperazin-1-yl)-4-fluoro-5H-dibenzo[b,e][1,4]diazepine] |  |  | 108.174 and 103.461 and 68.1848 and 77.4203 and 88.3922 and 59.3537 and 61.4668 | 208.38 and 83.765 and 47.1951 and 156.41 and 190.369 and 42.7803 and 81.1685 | produced [^11C]clozapine DREADD displacement at hM4Di | 0.6176 | decreased metabolism |
